These results are taken from the NIST ThermoML archive (doi:10.1016/j.jct.2011.07.003).

“And” between values parts separate entries of the source, which are not always exact repeats. Equal entries are not always repeated. Numbers after ± are expanded uncertainties.

The conditions of the data set: Calculated from knudsen effusion weight loss.

Consider `c1ccc2cc3ccccc3cc2c1` [anthracene], for which the “vapor or sublimation pressure” value reads like this: (321.79 K, Crystal) 1.7e-05 ± 1e-06 kPa and 1.8e-05 ± 1e-06 kPa and 1.9e-05 ± 1e-06 kPa; (328.88 K, Crystal) 3.9e-05 ± 2e-06 kPa and 3.7e-05 ± 2e-06 kPa and 4e-05 ± 2e-06 kPa; (337.2 K, Crystal) 9.3e-05 ± 5e-06 kPa [middle of 7 runs]; (345.77 K, Crystal) 0.000236 ± 1.2e-05 kPa [middle of 6 runs]; (352.86 K, Crystal) 0.000473 ± 2.4e-05 kPa [middle of 6 runs]; (360.64 K, Crystal) 0.000988 ± 4.9e-05 kPa [middle of 5 runs].

For the compound `c1ccc2c(c1)ccc1ccccc12` [phenanthrene], the “vapor or sublimation pressure” value is, setting by setting: (295.73 K, Crystal 2) 1.4e-05 ± 1e-06 kPa and 1.5e-05 ± 1e-06 kPa; (302.13 K, Crystal 2) 3.2e-05 ± 2e-06 kPa and 3.1e-05 ± 2e-06 kPa; (307.66 K, Crystal 2) 6.1e-05 ± 3e-06 kPa and 6.4e-05 ± 3e-06 kPa and 6.2e-05 ± 3e-06 kPa; (313.1 K, Crystal 2) 0.000118 ± 6e-06 kPa and 0.000119 ± 6e-06 kPa; (318.47 K, Crystal 2) 0.000208 ± 1e-05 kPa [middle of 6 runs]; (323 K, Crystal 2) 0.000341 ± 1.7e-05 kPa [middle of 5 runs]. Also, the “vapor or sublimation pressure” value runs as follows: (328.2 K, Crystal 2) 0.00059 ± 3e-05 kPa [middle of 6 runs]; (332.95 K, Crystal 2) 0.000959 ± 4.8e-05 kPa [middle of 6 runs].
